Here are results for 16 compounds from US3991200A, “Substituted nitroimidazolyl thiadiazoles and oxadiazoles as antibacterial agents and growth promoting compounds” (American Cyanamid Company, priority 1973, dated 1976).

SMILES strings stand for the structures. Read-outs that look alike come from different tables or passages of the source. Where only a bound is given, the exact number is not on record here.

For series [1], the system named is Staphylococcus aureus strain Smith. The series can be described thus: antibacterial activity in mice, Tests with Staphylococcus aureus strain Smith. It is filed as in vivo, Staphylococcus aureus (in Carworth Farms CFl-s female mice). The note with it: read-out: Results alive/tested (converted). How it is done:
(§1) Experiments were conducted to determine the antibacterial activity of compounds of the present invention against Proteus mirabilis, Staphylococus aureus strain Smith and Staphylococcus aureus strain Rose a tetracycline-resistant strain of Staphylococcus aureus. Infection was initiated in Carworth Farms CFl-s female mice (body weight […].) by intra-abdominal infection of 0.5 ml. of the broth dilutions of 5 hour cultures of the above organisms.

The next series deals with Salmonella gallinarum. The series can be described thus: controlling fowl typhoid in chicks, medicated feed. It is filed as in vivo, Salmonella gallinarum (in sex-linked pullet chicks). The following applies: 10 days. How it is done:
Groups of five one-day old sex-linked pullet checks are infected orally by gavage with 0.5 ml. of a 10^-^2 dilution of a five-hour Trypticase Soy Broth culture of Salmonella gallinarum, the causative agent of fowl typhoid. Each chick receives approximately 6 × 10^5 viable cells. Medication is administered continuously in the feed, beginning 3 hours before infection and continuing for 10 days, at which time the test is terminated and the number of survivors in each group recorded. Each test utilizes two control groups of chicks, the first group comprising 20 chicks which are infected and untreated, and the second group comprising 10 chicks which are uninfected and untreated. The results of the tests are set forth in the following Table III (in some instances, the results from two or more tests are combined): […]

In series [2] the test system is Staphylococcus aureus strain Rose. The series can be described thus: antibacterial activity in mice, Tests with Staphylococcus aureus strain Rose. It is filed as in vivo, Staphylococcus aureus (in Carworth Farms CFl-s female mice). The following applies: read-out: Results alive/tested (converted). The method, then:
as §1

Series [3] has as its system Pasteurella multocida. The series can be described thus: controlling a Pasteurella multocida infection in mice. It is filed as in vivo, Pasteurella multocida (in Swiss Webster female mice). The note with it: 336 h, 2 mg./mouse by gavage, two weeks post-infection, read-out: Survivors/Total (converted). The method, then: Swiss Webster, female mice weighing 22±2 g. were infected by intrapeutoneal injection of 0.5 ml. of a 5 hour Trypticase Soy Broth culture containing 10^7 cfu. of P. multocida. Each mouse was given by gavage at the time of infection 2 mg. of the test drug suspended in 0.2% agar.

Series [4] deals with Pasteurella multocida. Described as above. It is filed as in vivo, Pasteurella multocida (in Swiss Webster female mice). The note with it: 336 h, two weeks post-infection, read-out: Survivors/Total (converted); for responders at 0.25 mg: 0.25 mg./mouse by gavage; for responders at 0.5 mg: 0.5 mg./mouse by gavage; for responders at 1 mg: 1 mg./mouse by gavage.
The next series has as its system bacteria. The following applies: prior-art compounds; cited from earlier work.
In a further series the test system is Proteus mirabilis. The series can be described thus: antibacterial activity in mice, Tests with Proteus mirabilis. It is filed as in vivo, Proteus mirabilis (in Carworth Farms CFl-s female mice). The note with it: 256 mg/kg. The method, then:
as §1

Series [5] relates to Salmonella choleraesuis var. kunzendorf. The series can be described thus: controlling enteritis, mice infected with Salmonella choleraesuis, medicated feed. It is filed as in vivo. The following applies: 10 mice tested.
Method: Three groups of ten female Swiss Webster mice weighing 20 gm. are infected intraperitoneally with 0.5 ml. of 10^-^2 dilution of a five-hour Trypticase Soy Broth culture of Salmonella choleraesuis var. kunzendorf, the causitive agent of enteritis in pigs, an organism originally recovered from a field outbreak of Salmonella choleraesuis var. kunzendorf in pigs. Each mouse receives approximately 4.6 × 10^7 cells as the inoculating dose.
The mice are fed a medicated feed, which is a commercial mouse chow containing the compounds to be tested for 3 hours before the infection until 7 days after infection. The mice are held for an additional 7 days after the medication is stopped, and the number of survivors in each group recorded. The medicated feed is prepared by thoroughly admixing calculated amounts of the compounds with commercial mouse chow to provide essentially uniform distribution in the feed offered.
In a further series the test system is Escherichia coli. The series can be described thus: controlling colibacillosis in chicks infected with Escherichia coli, single oral dose. It is filed as in vivo, Escherichia coli (in sex-linked pullet chicks). The note with it: 12 days after treatment. How it is done: Three groups of 10 five-day old sex-linked pullet chicks are infected parenterally, in the left thoracic air sac, with 0.2 ml. of a 10^-^1 dilution of a Trypticase Soy Broth culture of Escherichia coli, the causative agent of colibacillosis in poultry. The compounds to be tested are administered by gavage as a single oral dose in an aqueous solution or suspension, and the chicks are permitted to feed ad libitum the feed composition prepared in Example 44. Twelve days after treatment, the test is terminated and the number of survivors in each group recorded.
Four groups of 40, five-day old sex-linked pullet chicks are infected in the same manner as herein set forth with Escherichia coli. […] Twelve days after treatment, the test is terminated and the number of survivors in each group recorded.

A short description of series [6]: concentrations of drug in plasma of noninfected mice (agar-diffusion assay). The following applies: for Cmax: mouse, read-out: Peak concn. in plasma. It is filed as in vivo. The method, then: Concentrations of drug in plasma are determined by assay of blood obtained by heart puncture of noninfected mice. Blood samples (about 0.5 ml. per mouse) from 10 mice receiving the same dose of drug are pooled. The drug is assayed in the plasma by a standard agar-diffusion plate method with Bacillus subtilis (Lederle No. 17) as the test organism.

A further series is described as follows: solubility in water. It is filed as physicochemical.
In series [7] the test system is Salmonella choleraesuis var. kunzendorf. The series can be described thus: controlling enteritis caused by Salmonella choleraesuis in swine, medicated feed. It is filed as in vivo, Salmonella choleraesuis var. kunzendorf (in pigs). The source says:
In the late afternoon of the day before infection, feed is removed from all pens. The following morning each group receives 2.5 lbs. of feed mixed either with normal broth or broth containing Salmonella choleraesuis variety kunzendorf organisms. […] For the rest of the trial the pigs are observed and graded daily. […] The trial is terminated four weeks after infection.

[8] abbreviates: 0.025% in feed, 10 chicks tested.
The mark [9] stands for this setting: 0.006% in feed, 10 chicks tested.
The mark [10] stands for this setting: 0.006% in feed, 5 chicks tested.
The mark [11] stands for this setting: 0.025% in feed, 5 chicks tested.

With `CCOC(=O)N1CCN(c2nnc(-c3ncc([N+](=O)[O-])n3C)s2)CC1` [2[2-(4-Carbethoxy-1-piperazinyl)-5-thiadiazolyl]-1-methyl-5-nitroimidazole], in series [1], the responders at 256 mg/kg is 80%.

In the case of `Cn1c([N+](=O)[O-])cnc1-c1nnc(NC=O)s1` [2-(2-Formamido-5-Thiadiazolyl)-1-methyl-5-nitroimidazole], the Survivors in the series with Salmonella gallinarum (0.006% in feed, 15 chicks tested) amounted to 9. For the same compound, the Survivors in the series with Salmonella gallinarum (0.025% in feed, 15 chicks tested) was found to be 11. This compound came in with a Survivors in the series on Salmonella gallinarum (0.1% in feed, 10 chicks tested) of 5. Besides, the responders at 64 mg/kg in series [1] was 100%. Besides, in series [2], the responders at 512 mg/kg was 100%. In the series on Pasteurella multocida [3], the responders at 2 mg was 100%. Besides, in the series with Pasteurella multocida [4], the responders at 0.25 mg is 80%, the responders at 0.5 mg is 100% and the responders at 1 mg was 90%.

Take `CN(C)c1nnc(-c2ncc([N+](=O)[O-])n2C)s1` [2-(2-Dimethylamino-5-thiadiazolyl)-1-methyl-5-nitroimidazole]: the Survivors in the series with Salmonella gallinarum (0.1% in feed, 5 chicks tested) was 4. Besides, the responders at 512 mg/kg in [1] (512 mg/kg) is 80%.

On to `Cn1c([N+](=O)[O-])cnc1C=NN1CCOC1=O` [3-[(1-methyl-5-nitro-2-imidazolylmethylene)amino]-2-oxazolidinone], for which the “antibacterial activity, in words” value in the series on bacteria is “some antibacterial activity”.

As for `CN(C)C=Nc1nnc(-c2ncc([N+](=O)[O-])n2C)s1` [2-{2-[ (Dimethylaminomethylene)amino]-5-thiadiazolyl} -1-methyl-5-nitroimidazole], in the series on Salmonella gallinarum (0.05% in feed, 5 chicks tested), the Survivors was determined as 5. The compound further displayed a Survivors with Salmonella gallinarum (0.1% in feed, 5 chicks tested) of 5. In addition, the Results alive/tested in the series with Proteus mirabilis is recorded as 3/5. In addition, the responders at 64 mg/kg in series [1] is 100%. In addition, the responders at 2 mg with Pasteurella multocida [3] was 100%. In addition, in the series with Pasteurella multocida [4], the responders at 0.25 mg was 80%, the responders at 0.5 mg is 97.5% and the responders at 1 mg was 93.3%.

For the compound `CCn1c([N+](=O)[O-])cnc1-c1nnc(N)s1` [2-(2-Amino-5-thiadiazolyl)-1-ethyl-5-nitroimidazole], the Survivors in the series with Salmonella gallinarum (setting [8]) stood at 9; in the series with Salmonella gallinarum (0.1% in feed, 10 chicks tested) it was 10; in series [5] (0.025% in mouse chow), 3; in [5] (0.1 % in mouse chow), 9. The responders at 512 mg/kg in series [2] is 100%. In the series with Pasteurella multocida [3], the responders at 2 mg is 100%.

Regarding `CN(C)c1nnc(-c2ncc([N+](=O)[O-])n2C)o1` [2-(2-Dimethylamino-5-oxadiazolyl)-1-methyl-5-nitroimidazole], the Survivors with Salmonella gallinarum (setting [9]) was 2; with Salmonella gallinarum (setting [8]), 9; in the series with Salmonella gallinarum (0.1% in feed, 10 chicks tested), 9. Further, the responders at 512 mg/kg in series [2] was 100%.

For the compound `Cn1c([N+](=O)[O-])cnc1C=NN1CCNC1=O` [1-[(1-methyl-5-nitro-2-imidazolylmethylene)amino]-2-imidazolidinone], in the series on bacteria, the “antibacterial activity, in words” value was “some antibacterial activity”.

As to `Cn1c([N+](=O)[O-])cnc1-c1nnc(N2CCNCC2)s1` [2-[2-(1-Piperazinyl)-5-thiadiazolyl]-1-methyl-5-nitroimidazole], the Survivors in the series on Escherichia coli (40 mg/kg single oral dose, 20 chicks tested) was found to be 6; in the series with Escherichia coli (160 mg/kg single oral dose, 20 chicks tested), 18; in the series on Salmonella gallinarum (setting [8]) it was 1; in the series with Salmonella gallinarum (0.1% in feed, 10 chicks tested), 8. In addition, the responders at 2 mg with Pasteurella multocida [3] is 10%.

With `CNc1nnc(-c2ncc([N+](=O)[O-])n2C)s1` [2-(2-Methylamino-5-thiadiazolyl)-1-methyl-5-nitroimidazole], in the series on Salmonella gallinarum (0.1% in feed, 5 chicks tested), the Survivors amounted to 3. The Results alive/tested in the series on Proteus mirabilis was 4/5. In series [2], the responders at 512 mg/kg is 80%.

On to `Cn1c([N+](=O)[O-])cnc1-c1nnc(N)s1` [2-(2-Amino-5-Thiadiazolyl)-1-methyl-5-nitroimidazole], for which the “absorption, in words” value in [6] (mice) was “rapidly absorbed”. Moreover, the Cmax in [6] (in vivo, 89 mg/kg) was 14000 to 18000 ng/mL; in [6] (plasma, 0.2 mg/kg) it was under 1000 ng/mL; in [6] (plasma, 16 mg/kg), 2000 to 4000 ng/mL; in series [6] (plasma, 56 mg/kg) it was 6000 to 12000 ng/mL. Moreover, in the series “solubility in water”, the “solubility in water, in words” value is given as “relatively insoluble in water”.

`Cn1c([N+](=O)[O-])cnc1-c1nnc(N)o1` [2-(2-Amino-5-oxadiazolyl)-1-methyl-5-nitroimidazole]: the Survivors in the series with Escherichia coli (5 mg/kg single oral dose, 20 chicks tested) was 7; in the series on Escherichia coli (20 mg/kg single oral dose, 20 chicks tested), 13; in the series with Escherichia coli (80 mg/kg single oral dose, 20 chicks tested) it was 15; with Salmonella gallinarum (setting [9]), 9; in the series on Salmonella gallinarum (setting [8]), 10; in the series on Salmonella gallinarum (0.1% in feed, 10 chicks tested) it was 10. In addition, in series [2], the responders at 512 mg/kg is 100%. The responders at 2 mg with Pasteurella multocida [3] is 70%. For the same compound, the responders at 0.25 mg in the series with Pasteurella multocida [4] is 10%. In the series on Pasteurella multocida [4], the responders at 0.5 mg is 15%. In addition, in the series on Pasteurella multocida [4], the responders at 1 mg is 40%.

Regarding `CC(=O)Nc1nnc(-c2ncc([N+](=O)[O-])n2C)s1` [2-(2-Acetamido-5-thiadiazolyl)-1-methyl-5-nitro-imidazole], the Survivors is on record as 29 with Escherichia coli (10 mg/kg single oral dose, 40 chicks tested); 35 with Escherichia coli (20 mg/kg single oral dose, 40 chicks tested); 39 in the series on Escherichia coli (40 mg/kg single oral dose, 40 chicks tested); 3 in the series with Salmonella gallinarum (setting [10]); 4 with Salmonella gallinarum (setting [11]); 5 in the series on Salmonella gallinarum (0.1% in feed, 5 chicks tested).

For `CCn1c([N+](=O)[O-])cnc1-c1nnc(N)o1` [2-(2-Amino-5-oxadiazolyl)-1-ethyl-5-nitroimidazole], the Survivors came out at 3 in the series with Salmonella gallinarum (setting [10]); 5 in the series with Salmonella gallinarum (setting [11]); 10 in the series on Salmonella gallinarum (0.1% in feed, 10 chicks tested). Moreover, the responders at 512 mg/kg in [2] was 100%. Besides, the responders at 2 mg in the series on Pasteurella multocida [3] is 80%.

Take `CN(C)CCCN1CCN(c2nnc(-c3ncc([N+](=O)[O-])n3C)s2)CC1` [2-{2-[4-(3-Dimethylaminopropyl)-1-piperazinyl]-5-thiadiazolyl}-1-methyl-5-nitroimidazole]: the responders at 256 mg/kg in [1] is 60%. In the series on Pasteurella multocida [3], the responders at 2 mg is 100%.

For the compound `O=C1OCCN1/N=C/c1ccc([N+](=O)[O-])o1` [Furazolidone], the “Median Survival Time” value in series [7] (50 ppm in diet) was found to be 6.8 days; in [7] (200 ppm in diet), 10.0 days. Further, the “Survivors Per Total” value is 0/10 in series [7] (50 ppm in diet ([…] per day nitroimidazole, 2.1 furazolidone)) and 2/10 in [7] (200 ppm in diet (12.3 mg/kg per day nitroimidazole, 7.5 furazolidone), *9/10 differs significantly from infected-untreated (P<.01)).
